Experimental data: PubChem BioAssay (NCI)
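All cell lines were grown in 96-well plates and treated with compound for 48 hours. TGI marks complete inhibition of growth.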

How the values were obtained:
Assay in all cases: inhibition of tumour cell growth, NCI panel, 48 h
786-0 renal = tested on: 786-0 renal
A498 renal = tested on: A498 renal
A549 NSCLC = tested on: A549 NSCLC
ACHN renal = tested on: ACHN renal
CAKI-1 renal = tested on: CAKI-1 renal
CCRF-CEM leukemia = tested on: CCRF-CEM leukemia
COLO 205 colon = tested on: COLO 205 colon
DMS 114 small cell lung = tested on: DMS 114 small cell lung
DMS 273 small cell lung = tested on: DMS 273 small cell lung
EKVX NSCLC = tested on: EKVX NSCLC
HCC-2998 colon = tested on: HCC-2998 colon
HCT-15 colon = tested on: HCT-15 colon
HOP-62 NSCLC = tested on: HOP-62 NSCLC
HOP-92 NSCLC = tested on: HOP-92 NSCLC
IGROV1 ovarian = tested on: IGROV1 ovarian
K-562 leukemia = tested on: K-562 leukemia
KM20L2 colon = tested on: KM20L2 colon
LXFL 529 NSCLC = tested on: LXFL 529 NSCLC
M14 melanoma = tested on: M14 melanoma
M19-MEL melanoma = tested on: M19-MEL melanoma
MALME-3M melanoma = tested on: MALME-3M melanoma
MOLT-4 leukemia = tested on: MOLT-4 leukemia
NCI-H522 lung = tested on: NCI-H522 lung
OVCAR-3 ovarian = tested on: OVCAR-3 ovarian
OVCAR-8 ovarian = tested on: OVCAR-8 ovarian
RXF-631 renal = tested on: RXF-631 renal
SF-268 CNS = tested on: SF-268 CNS
SF-295 CNS = tested on: SF-295 CNS
SF-539 CNS = tested on: SF-539 CNS
SK-MEL-5 melanoma = tested on: SK-MEL-5 melanoma
SK-OV-3 ovarian = tested on: SK-OV-3 ovarian
SN12C renal = tested on: SN12C renal
SNB-19 CNS = tested on: SNB-19 CNS
SNB-78 CNS = tested on: SNB-78 CNS
SR leukemia = tested on: SR leukemia
SW-620 colon = tested on: SW-620 colon
U251 CNS = tested on: U251 CNS
UO-31 renal = tested on: UO-31 renal

Measured: TGI

CC(C)N(C(=O)C12C3C4C1C1C2C3C41C(N)=O)C(C)C (stereo not drawn)
> 100 µM: all assays above
